As usually defined, the DC50 is the concentration giving 50% degradation. What is called Dmax is the greatest extent of degradation seen.

For this test, the target named is T1, PLK1 (Homo sapiens, UniProt P53350).
T1 construct: endogenous in cells; host or cells: HeLa
Briefly: PLK1 protein degradation in HeLa cells, Western blotting (PLK1/GAPDH ratio). The note with it: 6 hours compound incubation; for DC50: measured only if the grade of Dmax is A or B; for Dmax: thymidine block and release, 10 points three-fold from 3 μM, PLK1 to GAPDH ratio, read-out: Dmax. The test is classed as cell-based. The procedure, abridged:
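PLK1 level measured by Western blot as PLK1/GAPDH in HeLa lysates (15 μg protein per lane). Cells were blocked with 2 mM thymidine 24 h, released 4 h, and exposed 6 h to compound, 10 concentrations, 3-fold steps, top 3 μM.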
For orientation: Immunoblotting shows a protein as a band on a membrane.

T1 sequence (P53350 whole entry): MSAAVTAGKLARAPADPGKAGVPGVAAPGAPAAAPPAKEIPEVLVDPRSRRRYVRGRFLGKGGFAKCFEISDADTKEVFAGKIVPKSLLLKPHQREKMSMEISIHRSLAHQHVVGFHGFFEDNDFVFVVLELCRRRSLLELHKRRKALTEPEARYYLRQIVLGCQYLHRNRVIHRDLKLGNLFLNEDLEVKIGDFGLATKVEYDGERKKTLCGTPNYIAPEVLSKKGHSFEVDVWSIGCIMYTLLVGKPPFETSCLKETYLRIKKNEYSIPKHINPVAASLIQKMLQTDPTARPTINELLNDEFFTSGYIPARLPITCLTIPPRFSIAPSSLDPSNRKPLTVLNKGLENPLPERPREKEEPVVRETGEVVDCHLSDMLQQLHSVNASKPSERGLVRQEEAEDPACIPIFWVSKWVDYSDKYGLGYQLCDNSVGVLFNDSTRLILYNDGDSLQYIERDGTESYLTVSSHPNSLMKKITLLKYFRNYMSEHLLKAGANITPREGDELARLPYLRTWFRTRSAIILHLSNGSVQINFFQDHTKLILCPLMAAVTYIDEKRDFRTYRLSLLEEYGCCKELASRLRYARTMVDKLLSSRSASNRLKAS

For `COc1cc(C(=O)N[C@H]2CCN(C(=O)CN3CCN(c4ccc5c(c4)C(=O)N(C4CCC(=O)NC4=O)C5=O)CC3)C2)c(F)cc1Nc1ncc2c(n1)N(C1CCCC1)CC(F)(F)C(=O)N2C` (stereo partly drawn) [Compound 135, 4-((9-cyclopentyl-7,7-difluoro-5-methyl-6-oxo-6,7,8,9-tetrahydro-5H-pyrimido[4,5-b][1,4]diazepin-2-yl)amino)-N-((3S)-1-(2-(4-(2-(2,6-dioxopiperidin-3-yl)-1,3-dioxoisoindolin-5-yl)piperazin-1-yl)acetyl)pyrrolidin-3-yl)-2-fluoro-5-methoxybenzamide], the half-maximal degradation concentration (DC50) is at most 0.05 µM and the Dmax was at least 80%.
In the same order, the values of `COc1cc(C(=O)N[C@H]2CCN(C(=O)CCN3CCN(c4ccc5c(c4)C(=O)N(C4CCC(=O)NC4=O)C5=O)CC3)C2)c(F)cc1Nc1ncc2c(n1)N(C1CCCC1)CC(F)(F)C(=O)N2C` (stereo partly drawn) [Compound 136, 4-((9-cyclopentyl-7,7-difluoro-5-methyl-6-oxo-6,7,8,9-tetrahydro-5H-pyrimido[4,5-b][1,4]diazepin-2-yl)amino)-N-((3S)-1-(3-(4-(2-(2,6-dioxopiperidin-3-yl)-1,3-dioxoisoindolin-5-yl)piperazin-1-yl)propanoyl)pyrrolidin-3-yl)-2-fluoro-5-methoxybenzamide] are at most 0.05 µM and at least 80%.
In the same order, the values of `COc1cc(C(=O)N[C@@H]2CCN(C(=O)CCN3CCN(c4ccc5c(c4)C(=O)N(C4CCC(=O)NC4=O)C5=O)CC3)C2)c(F)cc1Nc1ncc2c(n1)N(C1CCCC1)CC(F)(F)C(=O)N2C` (stereo partly drawn) [Compound 137, 4-((9-cyclopentyl-7,7-difluoro-5-methyl-6-oxo-6,7,8,9-tetrahydro-5H-pyrimido[4,5-b][1,4]diazepin-2-yl)amino)-N-((3R)-1-(3-(4-(2-(2,6-dioxopiperidin-3-yl)-1,3-dioxoisoindolin-5-yl)piperazin-1-yl)propanoyl)pyrrolidin-3-yl)-2-fluoro-5-methoxybenzamide] are at most 0.05 µM and at least 80%.
In the same order, the values of `COc1cc(C(=O)N[C@@H]2CCN(C(=O)CCCN3CCN(c4ccc5c(c4)C(=O)N(C4CCC(=O)NC4=O)C5=O)CC3)C2)c(F)cc1Nc1ncc2c(n1)N(C1CCCC1)CC(F)(F)C(=O)N2C` (stereo partly drawn) [Compound 138, 4-((9-cyclopentyl-7,7-difluoro-5-methyl-6-oxo-6,7,8,9-tetrahydro-5H-pyrimido[4,5-b][1,4]diazepin-2-yl)amino)-N-((3R)-1-(4-(4-(2-(2,6-dioxopiperidin-3-yl)-1,3-dioxoisoindolin-5-yl)piperazin-1-yl)butanoyl)pyrrolidin-3-yl)-2-fluoro-5-methoxybenzamide] are at most 0.05 µM and at least 80%.
With `COc1cc(C(=O)N[C@@H]2CCN(C(=O)CCCCN3CCN(c4ccc5c(c4)C(=O)N(C4CCC(=O)NC4=O)C5=O)CC3)C2)c(F)cc1Nc1ncc2c(n1)N(C1CCCC1)CC(F)(F)C(=O)N2C` (stereo partly drawn) [Compound 139, 4-((9-cyclopentyl-7,7-difluoro-5-methyl-6-oxo-6,7,8,9-tetrahydro-5H-pyrimido[4,5-b][1,4]diazepin-2-yl)amino)-N-((3R)-1-(5-(4-(2-(2,6-dioxopiperidin-3-yl)-1,3-dioxoisoindolin-5-yl)piperazin-1-yl)pentanoyl)pyrrolidin-3-yl)-2-fluoro-5-methoxybenzamide], the DC50 is at most 0.05 µM and the Dmax was at least 80%.
`COc1cc(C(=O)N[C@H]2CCN(C(=O)CCC(=O)N3CCN(c4cccc5c4C(=O)N(C4CCC(=O)NC4=O)C5=O)CC3)C2)c(F)cc1Nc1ncc2c(n1)N(C1CCCC1)CC(F)(F)C(=O)N2C` (stereo partly drawn) [Compound 140, 4-((9-cyclopentyl-7,7-difluoro-5-methyl-6-oxo-6,7,8,9-tetrahydro-5H-pyrimido[4,5-b][1,4]diazepin-2-yl)amino)-N-((3S)-1-(4-(4-(2-(2,6-dioxopiperidin-3-yl)-1,3-dioxoisoindolin-4-yl)piperazin-1-yl)-4-oxobutanoyl)pyrrolidin-3-yl)-2-fluoro-5-methoxybenzamide]: the half-maximal degradation concentration (DC50) was at most 0.05 µM and the maximal degradation (Dmax) is at least 80%.
With `COc1cc(C(=O)N[C@H]2CCN(C(=O)CCC(=O)N3CCN(c4cccc5c4C(=O)N(C4CCC(=O)NC4=O)C5=O)CC3)C2)ccc1Nc1ncc2c(n1)N(C1CCCC1)CC(F)(F)C(=O)N2C` (stereo partly drawn) [Compound 141, 4-((9-cyclopentyl-7,7-difluoro-5-methyl-6-oxo-6,7,8,9-tetrahydro-5H-pyrimido[4,5-b][1,4]diazepin-2-yl)amino)-N-((3S)-1-(4-(4-(2-(2,6-dioxopiperidin-3-yl)-1,3-dioxoisoindolin-4-yl)piperazin-1-yl)-4-oxobutanoyl)pyrrolidin-3-yl)-3-methoxybenzamide], the DC50 is at most 0.05 µM and the greatest degradation seen (Dmax) is at least 80%.
In the same order, the values of `CN1C(=O)C(F)(F)CN(C2CCCC2)c2nc(Nc3ccc(C(=O)N[C@H]4CCN(C(=O)CCC(=O)N5CCN(c6cccc7c6C(=O)N(C6CCC(=O)NC6=O)C7=O)CC5)C4)cc3)ncc21` (stereo partly drawn) [Compound 142, 4-((9-cyclopentyl-7,7-difluoro-5-methyl-6-oxo-6,7,8,9-tetrahydro-5H-pyrimido[4,5-b][1,4]diazepin-2-yl)amino)-N-((3S)-1-(4-(4-(2-(2,6-dioxopiperidin-3-yl)-1,3-dioxoisoindolin-4-yl)piperazin-1-yl)-4-oxobutanoyl)pyrrolidin-3-yl)benzamide] are at most 0.5 µM and 60 to 80%.
The corresponding values for `COc1cc(C(=O)N[C@H]2CCN(C(=O)CCCC(=O)N3CCN(c4cccc5c4C(=O)N(C4CCC(=O)NC4=O)C5=O)CC3)C2)c(F)cc1Nc1ncc2c(n1)N(C1CCCC1)CC(F)(F)C(=O)N2C` (stereo partly drawn) [Compound 143, 4-((9-cyclopentyl-7,7-difluoro-5-methyl-6-oxo-6,7,8,9-tetrahydro-5H-pyrimido[4,5-b][1,4]diazepin-2-yl)amino)-N-((3S)-1-(5-(4-(2-(2,6-dioxopiperidin-3-yl)-1,3-dioxoisoindolin-4-yl)piperazin-1-yl)-5-oxopentanoyl)pyrrolidin-3-yl)-2-fluoro-5-methoxybenzamide] are at most 0.5 µM and 60 to 80%.
In the same order, the values of `COc1cc(C(=O)N[C@H]2CCN(C(=O)CCC(=O)N3CCN(c4ccc5c(c4)C(=O)N(C4CCC(=O)NC4=O)C5=O)CC3)C2)c(F)cc1Nc1ncc2c(n1)N(C1CCCC1)CC(F)(F)C(=O)N2C` (stereo partly drawn) [Compound 144, 4-((9-cyclopentyl-7,7-difluoro-5-methyl-6-oxo-6,7,8,9-tetrahydro-5H-pyrimido[4,5-b][1,4]diazepin-2-yl)amino)-N-((3S)-1-(4-(4-(2-(2,6-dioxopiperidin-3-yl)-1,3-dioxoisoindolin-5-yl)piperazin-1-yl)-4-oxobutanoyl)pyrrolidin-3-yl)-2-fluoro-5-methoxybenzamide] are at most 0.05 µM and at least 80%.
With `COc1cc(C(=O)N[C@H]2CCN(C(=O)CCC(=O)N3CCN(c4ccc5c(c4)C(=O)N(C4CCC(=O)NC4=O)C5=O)CC3)C2)ccc1Nc1ncc2c(n1)N(C1CCCC1)CC(F)(F)C(=O)N2C` (stereo partly drawn) [Compound 145, 4-((9-cyclopentyl-7,7-difluoro-5-methyl-6-oxo-6,7,8,9-tetrahydro-5H-pyrimido[4,5-b][1,4]diazepin-2-yl)amino)-N-((3S)-1-(4-(4-(2-(2,6-dioxopiperidin-3-yl)-1,3-dioxoisoindolin-5-yl)piperazin-1-yl)-4-oxobutanoyl)pyrrolidin-3-yl)-3-methoxybenzamide], the DC50 is over 0.5 µM and the Dmax is 60 to 80%.
With `CN1C(=O)C(F)(F)CN(C2CCCC2)c2nc(Nc3ccc(C(=O)N[C@H]4CCN(C(=O)CCC(=O)N5CCN(c6ccc7c(c6)C(=O)N(C6CCC(=O)NC6=O)C7=O)CC5)C4)cc3)ncc21` (stereo partly drawn) [Compound 146, 4-((9-cyclopentyl-7,7-difluoro-5-methyl-6-oxo-6,7,8,9-tetrahydro-5H-pyrimido[4,5-b][1,4]diazepin-2-yl)amino)-N-((3S)-1-(4-(4-(2-(2,6-dioxopiperidin-3-yl)-1,3-dioxoisoindolin-5-yl)piperazin-1-yl)-4-oxobutanoyl)pyrrolidin-3-yl)benzamide], the Dmax is under 60%.
On to `COc1cc(C(=O)N[C@H]2CCN(C(=O)CCCC(=O)N3CCN(c4ccc5c(c4)C(=O)N(C4CCC(=O)NC4=O)C5=O)CC3)C2)c(F)cc1Nc1ncc2c(n1)N(C1CCCC1)CC(F)(F)C(=O)N2C` (stereo partly drawn) [Compound 147, 4-((9-cyclopentyl-7,7-difluoro-5-methyl-6-oxo-6,7,8,9-tetrahydro-5H-pyrimido[4,5-b][1,4]diazepin-2-yl)amino)-N-((3S)-1-(5-(4-(2-(2,6-dioxopiperidin-3-yl)-1,3-dioxoisoindolin-5-yl)piperazin-1-yl)-5-oxopentanoyl)pyrrolidin-3-yl)-2-fluoro-5-methoxybenzamide], for which the DC50 was at most 0.5 µM and the maximal degradation (Dmax) fell in the range of 60 to 80%.
As to `COc1cc(C(=O)N[C@H]2CCN(C(=O)CCC(=O)N3CC4(C3)CN(c3cccc5c3C(=O)N(C3CCC(=O)NC3=O)C5=O)C4)C2)c(F)cc1Nc1ncc2c(n1)N(C1CCCC1)CC(F)(F)C(=O)N2C` (stereo partly drawn) [Compound 148, 4-((9-cyclopentyl-7,7-difluoro-5-methyl-6-oxo-6,7,8,9-tetrahydro-5H-pyrimido[4,5-b][1,4]diazepin-2-yl)amino)-N-((3S)-1-(4-(6-(2-(2,6-dioxopiperidin-3-yl)-1,3-dioxoisoindolin-4-yl)-2,6-diazaspiro[3.3]heptan-2-yl)-4-oxobutanoyl)pyrrolidin-3-yl)-2-fluoro-5-methoxybenzamide], the DC50 was at most 0.05 µM and the Dmax was at least 80%.

The values are drawn from US20230372498A1, “PLK1 SELECTIVE DEGRADATION INDUCING COMPOUND” (UPPTHERA, priority 2020, published 2023).
